Results reported in US9371290B2, “Pyridazinone compounds” (BIOTIE THERAPIES CORPORATION, priority 2011, dated 2016).

Compound	melting point [°C]
CN1CCN(c2cc(=O)n(-c3ccccc3)nc2C(N)=O)CC1.Cl	248 to 250
CN(C)CCNC(=O)c1nn(-c2ccccc2)c(=O)cc1Oc1ccccc1.Cl	138 to 141
Cn1nccc1-c1nn(-c2ccccc2)c(=O)cc1Oc1ccccc1 [Compound 1]	118 to 119
O=c1cc(O)c(-c2nc[nH]n2)nn1-c1ccccc1 [Compound 3]	218 to 220
COC(=O)c1nn(-c2ccccc2)c(=O)cc1-n1cc(-c2ccccc2)nn1 [Compound 6]	240 to 248
CCOC(=O)c1cn(-c2cc(=O)n(-c3ccccc3)nc2C(=O)OC)nn1 [Compound 7]	165 to 170
N=CNNC(=O)c1nn(-c2ccccc2)c(=O)cc1Sc1ccccc1 [Compound 8, N^2-iminomethyl-6-oxo-4-phenylsulfanyl-1-phenyl-1,6-dihydropyridazin-3-carbohydrazide]	236 to 238
O=c1cc(Oc2ccccc2)c(-c2cccnc2)nn1-c1ccccc1 [Compound 9]	155 to 157
O=c1cc(Oc2ccc(Cl)cc2)c(-c2nc[nH]n2)nn1-c1ccccc1 [Compound 15]	235 to 240
O=c1cc(Oc2ccccc2)c(-c2ccco2)nn1-c1ccccc1 [Compound 18]	232 to 234
Cc1noc(C)c1-c1nn(-c2ccccc2)c(=O)cc1Oc1ccccc1 [Compound 19]	122 to 124
Cc1ccsc1-c1nn(-c2ccccc2)c(=O)cc1Oc1ccccc1 [Compound 20]	212 to 214
O=c1cc(Oc2ccccc2)c(-c2cccc(C(F)(F)F)c2)nn1-c1ccccc1 [Compound 21, 5-phenoxy-2-phenyl-6-[(3-trifluoromethyl)phenyl]pyridazin-3(2H)-one]	146 to 148
CN(C)/C=N/C(=O)c1nn(-c2ccccc2)c(=O)cc1Oc1ccccc1 [Compound 23, N,N-dimethyl-N′-[(6-oxo-4-phenoxy-1-phenyl-1,6-dihydropyridazin-3-yl)carbonyl]formamidine]	175 to 176
CCCc1cn(-c2cc(=O)n(-c3ccccc3)nc2C(=O)OC)nn1 [Compound 24]	146 to 148
COc1ccc(-n2nc(-c3nc[nH]n3)c(Oc3ccccc3)cc2=O)cc1 [Compound 26]	284 to 286
O=c1cc(Oc2ccccc2)c(-c2cn[nH]c2)nn1-c1ccccc1 [Compound 30]	245 to 247
COc1cc(=O)n(-c2ccccc2)nc1-c1nc[nH]n1 [Compound 31]	235 to 240
CCCc1cn(-c2cc(=O)n(-c3ccccc3)nc2C#N)nn1 [Compound 32, 6-oxo-1-phenyl-4-(4-propyl-1H-1,2,3-triazol-1-yl)-1,6-dihydropyridazine-3-carbonitrile]	192 to 195

Compound	melting point [°C]
O=c1cc(Oc2ccccc2)c(-c2nc[nH]n2)nn1-c1cccc(C(F)(F)F)c1 [Compound 33]	257 to 258
O=c1cc(Nc2ccccc2)c(-c2nc[nH]n2)nn1-c1ccccc1 [Compound 40]	287 to 290
Cn1cnc(-c2nn(-c3ccccc3)c(=O)cc2Oc2ccccc2)n1 [Compound 41]	235 to 237
O=c1cc(N2CCCC2)c(-c2nc[nH]n2)nn1-c1ccccc1 [Compound 44]	301 to 303
O=c1cc(Oc2ccccc2)c(-c2nc[nH]n2)nn1-c1ccccc1F [Compound 45]	265 to 267
[N-]=[N+]=Nc1cc(=O)n(-c2ccccc2)nc1C1=NCCN1 [Compound 47, 5-Azido-6-(4,5-dihydro-1H-imidazol-2-yl)-2-phenylpyridazin-3(2H)-one]	238 to 240
Cc1nc(-c2nn(-c3ccccc3)c(=O)cc2Oc2ccccc2)n[nH]1 [Compound 51, 5-phenoxy-2-phenyl-6-(5-methyl-1H-1,2,4-triazol-3-yl)-3(2H)-pyridazinone]	245 to 247
O=c1cc(Nc2ccncc2)c(-c2nc[nH]n2)nn1-c1ccccc1 [Compound 53]	342 to 344
CC(C)Nc1cc(=O)n(-c2ccccc2)cc1-c1nc[nH]n1 [Compound 54, 4-isopropylamino-1-phenyl-5-(1H-1,2,4-triazol-3-yl)-pyridin-2(1H)-one]	307 to 310
COc1ccc(Nc2cc(=O)n(-c3ccc(Cl)cc3)nc2-c2nc[nH]n2)cc1OC [Compound 60]	227 to 230
O=c1cc(Nc2ccccc2)c(-c2nc[nH]n2)nn1-c1ccc(Cl)cc1 [Compound 64]	244 to 246
Nc1ccc(Nc2cc(=O)n(-c3ccc(Cl)cc3)nc2-c2nc[nH]n2)cc1 [Compound 66]	278 to 281
CN1CCC(Nc2cc(=O)n(-c3ccc(Cl)cc3)nc2-c2nc[nH]n2)CC1 [Compound 67]	270 to 272
O=c1cc(Nc2ccccc2)c(-c2nc[nH]n2)nn1-c1cccc(F)c1 [Compound 69]	233 to 235
CN(C)c1ccc(Nc2cc(=O)n(-c3cccc(Cl)c3)nc2-c2nc[nH]n2)cc1 [Compound 72]	243 to 245
NNC(=O)c1nn(-c2ccccc2)c(=O)cc1Oc1ccccc1 [Compound 76]	80 to 82
N#CCNc1cc(=O)n(-c2ccc(Cl)cc2)nc1-c1nc[nH]n1 [Compound 79]	303 to 306
O=c1cc(Nc2ccc(N3CCNCC3)cc2)c(-c2nc[nH]n2)nn1-c1ccc(Cl)cc1 [Compound 80, 2-(4-chlorophenyl)-5-{[4-(4-piperazine-1-yl)phenyl]amino}-6-(1H-1,2,4-triazol-3-yl)-3(2H)-pyridazinone]	212 to 224
C#CCN(C)c1cc(=O)n(-c2ccc(Cl)cc2)nc1-c1nc[nH]n1 [Compound 82]	210 to 212
